The NIST ThermoML archive (doi:10.1021/je034162x)
± gives the expanded uncertainty stated by the source.

Conditions: 101.33 kPa, Liquid, Hot wire method

C1=CC2C=CC1C2 [bicyclo[2.2.1]hepta-2,5-diene]
thermal conductivity (258.57 K): 0.1485 ± 0.0012 W/m/K
thermal conductivity (258.7 K): 0.1484 ± 0.0012 W/m/K
thermal conductivity (258.8 K): 0.1484 ± 0.0012 W/m/K
thermal diffusivity (258.99 K): 1.08e-07 ± 2.1e-09 m2/s
thermal diffusivity (259.32 K): 1.08e-07 ± 2.1e-09 m2/s
thermal diffusivity (259.55 K): 1.09e-07 ± 2.1e-09 m2/s
thermal conductivity (276.78 K): 0.1426 ± 0.0011 W/m/K
thermal conductivity (276.89 K): 0.143 ± 0.0011 W/m/K
thermal conductivity (276.97 K): 0.1429 ± 0.0011 W/m/K
thermal diffusivity (277.21 K): 1.02e-07 ± 2e-09 m2/s
thermal diffusivity (277.47 K): 1.02e-07 ± 2e-09 m2/s
thermal diffusivity (277.66 K): 1.01e-07 ± 2e-09 m2/s
thermal conductivity (296.23 K): 0.1371 ± 0.0011 W/m/K
thermal conductivity (296.35 K): 0.1369 ± 0.0011 W/m/K
thermal conductivity (296.43 K): 0.1368 ± 0.0011 W/m/K
thermal diffusivity (296.61 K): 9.43e-08 ± 1.8e-09 m2/s
thermal diffusivity (296.89 K): 9.44e-08 ± 1.8e-09 m2/s
thermal diffusivity (297.1 K): 9.45e-08 ± 1.8e-09 m2/s
thermal conductivity (313.27 K): 0.1315 ± 0.001 W/m/K
thermal conductivity (313.38 K): 0.1314 ± 0.001 W/m/K
thermal conductivity (313.46 K): 0.1313 ± 0.001 W/m/K
thermal diffusivity (313.63 K): 8.85e-08 ± 1.7e-09 m2/s
thermal diffusivity (313.9 K): 8.86e-08 ± 1.7e-09 m2/s
thermal diffusivity (314.1 K): 8.86e-08 ± 1.7e-09 m2/s
thermal conductivity (331.81 K): 0.1256 ± 0.001 W/m/K
thermal conductivity (331.91 K): 0.1255 ± 0.001 W/m/K
thermal conductivity (331.98 K): 0.1254 ± 0.001 W/m/K
thermal diffusivity (332.15 K): 8.25e-08 ± 1.6e-09 m2/s
thermal diffusivity (332.4 K): 8.25e-08 ± 1.6e-09 m2/s
thermal diffusivity (332.57 K): 8.24e-08 ± 1.6e-09 m2/s

C1CCCCCC1 [cycloheptane]
thermal conductivity (262.18 K): 0.1272 ± 0.0012 W/m/K
thermal conductivity (262.37 K): 0.1271 ± 0.0012 W/m/K
thermal conductivity (262.5 K): 0.1271 ± 0.0012 W/m/K
thermal diffusivity (262.77 K): 8.84e-08 ± 1.8e-09 m2/s
thermal diffusivity (263.24 K): 8.9e-08 ± 1.8e-09 m2/s
thermal diffusivity (263.56 K): 8.91e-08 ± 1.8e-09 m2/s
thermal conductivity (280.17 K): 0.1228 ± 0.0012 W/m/K
thermal conductivity (280.35 K): 0.1227 ± 0.0012 W/m/K
thermal conductivity (280.48 K): 0.1227 ± 0.0012 W/m/K
thermal diffusivity (280.76 K): 8.39e-08 ± 1.7e-09 m2/s
thermal diffusivity (281.19 K): 8.4e-08 ± 1.7e-09 m2/s
thermal diffusivity (281.5 K): 8.4e-08 ± 1.7e-09 m2/s
thermal conductivity (297.01 K): 0.1187 ± 0.0012 W/m/K
thermal conductivity (297.2 K): 0.1185 ± 0.0012 W/m/K
thermal conductivity (297.33 K): 0.1185 ± 0.0012 W/m/K
thermal diffusivity (297.59 K): 7.97e-08 ± 1.6e-09 m2/s
thermal diffusivity (298.03 K): 7.98e-08 ± 1.6e-09 m2/s
thermal diffusivity (298.33 K): 7.98e-08 ± 1.6e-09 m2/s
thermal conductivity (320.05 K): 0.1132 ± 0.0011 W/m/K
thermal conductivity (320.23 K): 0.1131 ± 0.0011 W/m/K
thermal conductivity (320.36 K): 0.113 ± 0.0011 W/m/K
thermal diffusivity (320.62 K): 7.47e-08 ± 1.5e-09 m2/s
thermal diffusivity (321.05 K): 7.46e-08 ± 1.5e-09 m2/s
thermal diffusivity (321.34 K): 7.46e-08 ± 1.5e-09 m2/s

[2H]C1([2H])C([2H])([2H])C([2H])([2H])C([2H])([2H])C([2H])([2H])C1([2H])[2H] [cyclohexane-d12]
thermal conductivity (280.46 K): 0.1163 ± 0.00075 W/m/K
thermal conductivity (280.63 K): 0.1162 ± 0.00075 W/m/K
thermal conductivity (280.74 K): 0.1161 ± 0.00075 W/m/K
thermal diffusivity (280.97 K): 6.83e-08 ± 1.3e-09 m2/s
thermal diffusivity (281.35 K): 6.85e-08 ± 1.3e-09 m2/s
thermal diffusivity (281.6 K): 6.81e-08 ± 1.3e-09 m2/s
thermal conductivity (291.18 K): 0.1133 ± 0.00073 W/m/K
thermal conductivity (291.34 K): 0.1133 ± 0.00073 W/m/K
thermal conductivity (291.45 K): 0.1132 ± 0.00073 W/m/K
thermal diffusivity (291.65 K): 6.5e-08 ± 1.2e-09 m2/s
thermal diffusivity (292.04 K): 6.54e-08 ± 1.2e-09 m2/s
thermal diffusivity (292.29 K): 6.53e-08 ± 1.2e-09 m2/s
thermal conductivity (303.67 K): 0.11 ± 0.00071 W/m/K
thermal conductivity (303.83 K): 0.1099 ± 0.00072 W/m/K
thermal conductivity (303.92 K): 0.1098 ± 0.00072 W/m/K
thermal diffusivity (304.14 K): 6.23e-08 ± 1.2e-09 m2/s
thermal diffusivity (304.49 K): 6.22e-08 ± 1.2e-09 m2/s
thermal diffusivity (304.72 K): 6.19e-08 ± 1.2e-09 m2/s
thermal conductivity (315.91 K): 0.1067 ± 0.00069 W/m/K
thermal conductivity (316.06 K): 0.1066 ± 0.00069 W/m/K
thermal conductivity (316.17 K): 0.1066 ± 0.00069 W/m/K
thermal diffusivity (316.35 K): 5.91e-08 ± 1.1e-09 m2/s
thermal diffusivity (316.71 K): 5.93e-08 ± 1.1e-09 m2/s
thermal diffusivity (316.96 K): 5.96e-08 ± 1.1e-09 m2/s
thermal conductivity (326.3 K): 0.1042 ± 0.00069 W/m/K
thermal conductivity (326.44 K): 0.104 ± 0.00068 W/m/K
thermal conductivity (326.54 K): 0.104 ± 0.00068 W/m/K
thermal diffusivity (326.75 K): 5.75e-08 ± 1.1e-09 m2/s
thermal diffusivity (327.08 K): 5.73e-08 ± 1.1e-09 m2/s
thermal diffusivity (327.31 K): 5.72e-08 ± 1.1e-09 m2/s
